Laboratory results published in patent US4283527A, “Erythromycylamine 11,12-carbonate and derivatives thereof” (Pfizer Inc., priority 1980, dated 1981).
Where two headings read alike, the source gives them in different places.

Tests used:
Streptococcus faecalis = settings: strain 02A006
Streptococcus pneumoniae = settings: strain 02J012
Enterobacter aeruginosa = settings: strain 67A040
Klebsiella oxytoca = settings: strain 53D024
Hemophilus influenzae = settings: strain 54A036
Morgani morgansus = settings: strain 97A001
Bacillus subtilis = settings: strain 06A001
Serratia marcescens = settings: strain 63A017
Neisseria sicca = settings: strain 66C000
Providentia retgerii = settings: strain 77CA025
Pasteurella multocida = settings: strain 59A001
Providentia stuarti = settings: strain 77A013
Enterobacter cloacea = settings: strain 67B009

Measured: MIC

9(S)-Erythromycylamine 11,12-Carbonate
3.12 µg/mL: Hemophilus influenzae | Neisseria sicca
50 µg/mL: Enterobacter aeruginosa | Klebsiella pneumoniae; strain 53A009 | Klebsiella pneumoniae; strain 53A031
0.78 µg/mL: Escherichia coli; strain 51A470 | Streptococcus pyogenes; strain 02C040
25 µg/mL: Escherichia coli; strain 51A125 | Escherichia coli; strain 51A129 | Escherichia coli; strain 51A266
12.5 µg/mL: Staphylococcus aureus; strain 01A400R, R = resistant to erythromycin
< .02 µg/mL: Streptococcus pyogenes; strain 02C203
0.20 µg/mL: Staphylococcus aureus; strain 01A005 | Staphylococcus aureus; strain 01A052 | Staphylococcus epidermis; strain 01B111
0.10 µg/mL: Streptococcus pneumoniae | Bacillus subtilis
0.39 µg/mL: Streptococcus faecalis | Pasteurella multocida
> 50 µg/mL: Klebsiella oxytoca | Morgani morgansus | Serratia marcescens | Staphylococcus aureus; strain 01A110R, R = resistant to erythromycin | Pseudomonas aeruginosa; strain 52A104 | Pseudomonas aeruginosa; strain 52A663 | Providentia retgerii | Providentia stuarti | Enterobacter cloacea | Staphylococcus epidermis; strain 01B037R, R = resistant to erythromycin | Staphylococcus epidermis; strain 01B126R, R = resistant to erythromycin
